Read-outs that look alike come from different tables or passages of the source.
What was measured:
MCL1/Bim = MCL1/Bim (Homo sapiens (Human), UniProt Q07820); assay: MCL1/Bim Binding AlphaLISA Assay; details: recombinant human 6xHis-MCL1 (171-327), biotinylated Bim peptide (51-76)
Method in brief: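 AlphaLISA with 0.0625 nM human 6×His-MCL1 (171-327) and 0.0625 nM biotinylated Bim (51-76) peptide in 20 mM Hepes pH 7.5, 150 mM NaCl, 0.002% Brij 35, 1 mM DTT, 0.01% BSA. Compound preincubated with MCL1 1 h, Bim added 2 h, then acceptor and donor beads 1 h each; % inhibition versus DMSO and no-protein/peptide controls.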

SKBR3 cells = assay: SKBR3 Cell Viability Assay; assay type: cell-based; details: CellTiter Glo, read-out: MCL1 CV SKBR3 EC50
Method in brief: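 Viability was measured by CellTiter-Glo luminescence after 72 h at 37° C, 5% CO2. Each well held 6,000 SKBR3 cells in McCoy's 5A/10% FBS dispensed onto serially diluted compound. Percent inhibition is relative to DMSO and 10 μM puromycin controls.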

[1] = Homo sapiens, SK-BR-3, 72 hours

Chain of MCL1/Bim (Q07820 171-327): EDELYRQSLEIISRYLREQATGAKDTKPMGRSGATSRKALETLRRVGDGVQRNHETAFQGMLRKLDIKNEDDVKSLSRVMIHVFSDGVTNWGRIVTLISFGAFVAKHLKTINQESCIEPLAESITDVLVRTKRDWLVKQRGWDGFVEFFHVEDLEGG

Row | Compound | IC50 (MCL1/Bim) [nM] | EC50 (SKBR3 cells; [1]) [nM] | EC50 (SKBR3 cells; 72 hours) [nM]
1 | COc1nn(C)cc1C(=O)N[S@@]1(=O)=NC(=O)c2ccc3c(c2)N(C[C@@H]2CC[C@H]2[C@](CN2CCN4CCOC[C@@H]4C2)(OC)/C=C/C[C@H](C)C1)C[C@@]1(CCCc2cc(Cl)ccc21)CO3 [Example 111] | 0.211 | 26.3 | –
2 | COc1nc(N[S@@]2(=O)=NC(=O)c3ccc4c(c3)N(C[C@@H]3CC[C@H]3[C@@H](OC)/C=C/C[C@H](C)C2)C[C@@]2(CCCc3cc(Cl)ccc32)CO4)c2cn(C)nc2n1 [Example 10] | 0.084 | 47.6 | –
3 | COc1nn(C)cc1C(=O)N[S@@]1(=O)=NC(=O)c2ccc3c(c2)N(C[C@@H]2CC[C@H]2[C@@H](OC)/C=C/[C@H](Oc2ccncc2)[C@H](C)C1)C[C@@]1(CCCc2cc(Cl)ccc21)CO3 [Example 78] | 0.679 | 1060 | –
4 | CC[C@@H]1CC/C=C/[C@H](OC)[C@@H]2CC[C@H]2CN2C[C@@]3(CCCc4cc(Cl)ccc43)COc3ccc(cc32)C(=O)N=S1(=O)NC(=O)COC1CCOCC1 (stereo partly shown) [Example 40] | 0.101 | – | 326
5 | CCn1cc(C(=O)N[S@@]2(=O)=NC(=O)c3ccc4c(c3)N(C[C@@H]3CC[C@H]3[C@@H](OC)/C=C/C[C@H](C)C2)C[C@]2(CO4)SCCc3cc(Cl)ccc32)cn1 [Example 178] | 0.05 | 25.9 | –
6 | COc1nn(C)cc1C(=O)N[S@@]1(=O)=NC(=O)c2ccc3c(c2)N(C[C@@H]2CC[C@H]2[C@H]2OCC[C@@H]2CC[C@H](C)C1)C[C@@]1(CCCc2cc(Cl)ccc21)CO3 [Example 136] | 0.096 | 67.2 | –
7 | COc1nn(C)cc1C(=O)N[S@@]1(=O)=NC(=O)c2ccc3c(c2)N(C[C@@H]2CC[C@H]2[C@H](OC)[C@@H](OC)/C=C\[C@H](C)C1)C[C@@]1(CCCc2cc(Cl)ccc21)CO3 [Example 132] | 0.833 | 1020 | –
8 | COc1nn(C)cc1C(=O)N[S@@]1(=O)=NC(=O)c2ccc3c(c2)N(C[C@@H]2CC[C@H]2[C@@H](OC)/C=C/[C@@](C)(O)[C@H](C)C1)C[C@@]1(CCCc2cc(Cl)ccc21)CO3 [Example 120] | 0.034 | – | 35.2
9 | CCn1cc(C(=O)N[S@@]2(=O)=NC(=O)c3ccc4c(c3)N(C[C@@H]3CC[C@H]3[C@@H](OC)/C=C/C[C@H](C)C2)C[C@]2(CO4)C[C@@H]3C[C@@H]3c3cc(Cl)ccc32)cn1 [Example 164] | 0.105 | 88.1 | –
10 | COc1nn(C)cc1C(=O)N[S@@]1(=O)=NC(=O)c2ccc3c(c2)N(C[C@@H]2CC[C@H]2[C@@H](OC)/C=C/[C@H](OCCN2CC4(CN(C)C4)C2)[C@H](C)C1)C[C@@]1(CCCc2cc(Cl)ccc21)CO3 [Example 87] | 0.19 | 1090 | –
11 | CO[C@H]1/C=C/C[C@H](C)[C@@H](C)[S@@](=O)(NC(=O)c2cnn(C)c2)=NC(=O)c2ccc3c(c2)N(C[C@@H]2CC[C@H]21)C[C@]1(CO3)SCCc2cc(Cl)ccc21 [Example 180] | 0.06 | 24.9 | –

— patent US11667652B2, “MCL1 inhibitors” (Gilead Sciences, Inc., priority 2019, dated 2023)
